According to patent US10487093B2, “Heterocyclic compounds, in particular 2-oxo-4,4,5,5,6,6,7,7-octahydrobenzoxazole derivatives, and their use as antibacterial compounds” (priority 2016, dated 2019):
≈ marks a conversion by molar mass, not a printed value.

Tests used:
[1] = tested on: Acinetobacter baumannii NCTC 13420; assay: MIC, broth microdilution (CLSI) versus planktonic bacteria; format: cell-based; conditions: NCTC13420; Acinetobacter baumannii NCTC 13420; 16-20 h; mode of three independent experiments; read-out: MIC, Ab NCTC 13420
[2] = tested on: Acinetobacter baumannii ATCC 19606; assay: as above; format: cell-based; conditions: ATCC19606; Acinetobacter baumannii ATCC 19606; 16-20 h; mode of three independent experiments; read-out: MIC, Ab ATCC 19606
[3] = tested on: Enterobacter cloacae NCTC 13406; assay: as above; format: cell-based; conditions: NCTC13406; Enterobacter cloacae NCTC 13406; 16-20 h; mode of three independent experiments; read-out: MIC, Ecl NCTC 13406
[4] = tested on: Escherichia coli ATCC 25922; assay: as above; format: cell-based; conditions: ATCC25922; Escherichia coli ATCC 25922; 16-20 h; mode of three independent experiments; read-out: MIC, Ec ATCC 25922
E. coli ATCC BAA-2452 = assay: as above; format: cell-based; conditions: Escherichia coli ATCC BAA-2452; 16-20 h; mode of three independent experiments; read-out: MIC, Ec ATCC BAA 2452
E. coli NCTC 13476 = assay: as above; format: cell-based; conditions: NCTC13476; Escherichia coli NCTC 13476; 16-20 h; mode of three independent experiments; read-out: MIC, Ec NCTC 13476
E. coli MG1655 = assay: as above; format: cell-based, Escherichia coli; conditions: Escherichia coli, MG1655, read-out: MIC, Ec MG1655 WT
[5] = tested on: Haemophilus influenzae ATCC 49247; assay: as above; format: cell-based; conditions: ATCC49247; Haemophilus influenzae ATCC 49247; 16-20 h; mode of three independent experiments; read-out: MIC, Hi ATCC 49247
[6] = tested on: Mycobacterium smegmatis ATCC 19420; assay: as above; format: cell-based; conditions: Mycolicibacterium smegmatis, ATCC19420, 16-20 h, mode of three independent experiments, read-out: MIC, Ms ATCC 19420
[7] = tested on: Neisseria meningitidis ATCC 13090; assay: as above; format: cell-based; conditions: ATCC13090, 16-20 h, mode of three independent experiments
[8] = tested on: Pseudomonas aeruginosa ATCC 27853; assay: as above; format: cell-based; conditions: ATCC27853; Pseudomonas aeruginosa ATCC 27853; 16-20 h; mode of three independent experiments; read-out: MIC, Pa ATCC 27853
[9] = tested on: Staphylococcus aureus ATCC 29213; assay: as above; format: cell-based; conditions: ATCC29213; Staphylococcus aureus ATCC 29213; 16-20 h; mode of three independent experiments; read-out: MIC, Sa ATCC 29213
[10] = tested on: Streptococcus pneumoniae ATCC 49619; assay: as above; format: cell-based; conditions: ATCC49619; Streptococcus pneumoniae ATCC 49619; 16-20 h; mode of three independent experiments; read-out: MIC, Sp ATCC 49619
E. coli MG1655 S83L = format: cell-based, Escherichia coli; conditions: compared to the isogenic parent strain E. coli MG1655; S83L mutation on DNA gyrase subunit GyrA
E. coli MG1655 D87G = format: cell-based, Escherichia coli; conditions: compared to the isogenic parent strain E. coli MG1655; D87G mutation on DNA gyrase subunit GyrA
[11] = tested on: human hepatic cell line (HepG2 ATCC HB-8065); assay: Human cell viability assay (CellTiter-Glo); conditions: Homo sapiens, HepG2, 24 h, read-out: IC50 (μg/mL) HepG2

| SMILES | MIC [1] | MIC [2] | MIC [3] | MIC [4] | MIC (E. coli ATCC BAA-2452) | MIC (E. coli NCTC 13476) | MIC (E. coli MG1655) | MIC [5] | MIC [6] | MIC [7] | MIC [8] | MIC [9] | MIC [10] | Fold increase in MIC, E. coli MG1655 S83L (E. coli MG1655 S83L) | Fold increase in MIC, E. coli MG1655 D87G (E. coli MG1655 D87G) | IC50 [11] |
| --- | --- | --- | --- | --- | --- | --- | --- | --- | --- | --- | --- | --- | --- | --- | --- | --- |
| COc1ccc2ccc(=O)n(CCN[C@H]3CC[C@H]4[C@@H](C3)OC(=O)N4c3ccc4c(n3)NC(=O)CO4)c2n1 [Compound 4, 1-(2-{[(3aS,6S,7aR)-2-oxo-3-{3-oxo-2H,3H,4H-pyrido[3,2-b][1,4]oxazin-6-yl}-octahydro-1,3-benzoxazol-6-yl]amino}ethyl)-7-methoxy-1,2-dihydro-1,8-naphthyridin-2-one] | < 1 µg/mL | < 1 µg/mL | < 1 µg/mL | < 1 µg/mL | < 1 µg/mL | < 1 µg/mL | < 1 µg/mL | 1 to 10 µg/mL (≈ 1.97 to 19.7 µM) | < 1 µg/mL | < 1 µg/mL | 1 to 10 µg/mL (≈ 1.97 to 19.7 µM) | < 1 µg/mL | < 1 µg/mL | 1 fold | 1 fold | 10 to 100 µg/mL (≈ 19.7 to 197 µM) |
| NCCCOc1ccc2ccc(=O)n(CCN[C@H]3CC[C@H]4[C@@H](C3)OC(=O)N4c3ccc4c(n3)NC(=O)CO4)c2n1 [Compound 5, 1-(2-{[(3aS,6S,7aR)-2-oxo-3-{3-oxo-2H,3H,4H-pyrido[3,2-b][1,4]oxazin-6-yl}-octahydro-1,3-benzoxazol-6-yl]amino}ethyl)-7-(3-aminopropoxy)-1,2-dihydro-1,8-naphthyridin-2-one] | > 100 µg/mL |  | > 100 µg/mL | 10 to 100 µg/mL (≈ 18.2 to 182 µM) |  |  |  | > 100 µg/mL | 1 to 10 µg/mL (≈ 1.82 to 18.2 µM) |  | 1 to 10 µg/mL (≈ 1.82 to 18.2 µM) | 1 to 10 µg/mL (≈ 1.82 to 18.2 µM) | 10 to 100 µg/mL (≈ 18.2 to 182 µM) |  |  | > 100 µg/mL |
| O=C1COc2ccc(N3C(=O)O[C@@H]4C[C@@H](NCCn5c(=O)ccc6ccc(OCCO)nc65)CC[C@@H]43)nc2N1 [Compound 6, 1-(2-{[(3aS,6S,7aR)-2-oxo-3-{3-oxo-2H,3H,4H-pyrido[3,2-b][1,4]oxazin-6-yl}-octahydro-1,3-benzoxazol-6-yl]amino}ethyl)-7-(2-hydroxyethoxy)-1,2-dihydro-1,8-naphthyridin-2-one] | 10 to 100 µg/mL (≈ 18.6 to 186 µM) |  | 10 to 100 µg/mL (≈ 18.6 to 186 µM) | 1 to 10 µg/mL (≈ 1.86 to 18.6 µM) |  |  |  | 1 to 10 µg/mL (≈ 1.86 to 18.6 µM) | < 1 µg/mL |  | 1 to 10 µg/mL (≈ 1.86 to 18.6 µM) | 1 to 10 µg/mL (≈ 1.86 to 18.6 µM) | < 1 µg/mL |  |  | > 100 µg/mL |
| NS(=O)(=O)c1ccc(Oc2ccc3ccc(=O)n(CCN[C@@H]4CC[C@@H]5[C@@H](C4)OC(=O)N5c4ccc5c(n4)NC(=O)CO5)c3n2)cc1 [Compound 8, 4-{[8-(2-{[(3aR,6R,7aR)-2-oxo-3-{3-oxo-2H,3H,4H-pyrido[3,2-b][1,4]oxazin-6-yl}-octahydro-1,3-benzoxazol-6-yl]amino}ethyl)-7-oxo-7,8-dihydro-1,8-naphthyridin-2-yl]oxy}benzene-1-sulphonamide] | 10 to 100 µg/mL (≈ 15.4 to 154 µM) |  | 10 to 100 µg/mL (≈ 15.4 to 154 µM) | 1 to 10 µg/mL (≈ 1.54 to 15.4 µM) |  |  |  | < 1 µg/mL | < 1 µg/mL |  | 10 to 100 µg/mL (≈ 15.4 to 154 µM) | < 1 µg/mL | 1 to 10 µg/mL (≈ 1.54 to 15.4 µM) |  |  | 10 to 100 µg/mL (≈ 15.4 to 154 µM) |
| NCCOc1ccc2ccc(=O)n(CCN[C@H]3CC[C@H]4[C@@H](C3)OC(=O)N4c3ccc4c(n3)NC(=O)CO4)c2c1 [Compound 9, 1-(2-{[(3aS,6S,7aR)-2-oxo-3-{3-oxo-2H,3H,4H-pyrido[3,2-b][1,4]oxazin-6-yl}-octahydro-1,3-benzoxazol-6-yl]amino}ethyl)-7-(2-aminoethoxy)-1,2-dihydroquinolin-2-one] | > 100 µg/mL |  | > 100 µg/mL | 1 to 10 µg/mL (≈ 1.87 to 18.7 µM) |  |  |  | 10 to 100 µg/mL (≈ 18.7 to 187 µM) | > 100 µg/mL |  | 1 to 10 µg/mL (≈ 1.87 to 18.7 µM) | 1 to 10 µg/mL (≈ 1.87 to 18.7 µM) | 10 to 100 µg/mL (≈ 18.7 to 187 µM) |  |  | > 100 µg/mL |
